Laboratory results taken from ChEMBL document CHEMBL1201862, “PubChem BioAssay data set” (2004).
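How tested: cells in 96-well plates exposed to compound for 48 hours at five concentrations. The concentration for 50% growth inhibition is given as GI50.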 The source made the active and inactive calls. No stated cut-off is given here; in the data, active = GI50 up to about 1.1 µM and inactive = higher.

Key:
Experiment in all cases: DTP human tumour cell line panel, 48 h
786-0 = tested on: 786-0
BT-549 = tested on: BT-549
CAKI-1 = tested on: CAKI-1
COLO 205 = tested on: COLO 205
EKVX = tested on: EKVX
HCT-116 = tested on: HCT-116
HL-60 = tested on: HL-60
HOP-92 = tested on: HOP-92
MCF7 = tested on: MCF7
MDA-MB-231 = tested on: MDA-MB-231
MDA-N = tested on: MDA-N
NCI-H23 = tested on: NCI-H23
OVCAR-4 = tested on: OVCAR-4
RPMI-8226 = tested on: RPMI-8226
RXF 393 = tested on: RXF 393
SF-295 = tested on: SF-295
SK-MEL-2 = tested on: SK-MEL-2
SK-OV-3 = tested on: SK-OV-3
SW-620 = tested on: SW-620
TK-10 = tested on: TK-10

SMILES | GI50 (786-0) | GI50 (BT-549) | GI50 (CAKI-1) | GI50 (COLO 205) | GI50 (EKVX) | GI50 (HCT-116) | GI50 (HL-60) | GI50 (HOP-92) | GI50 (MCF7) | GI50 (MDA-MB-231) | GI50 (MDA-N) | GI50 (NCI-H23) | GI50 (OVCAR-4) | GI50 (RPMI-8226) | GI50 (RXF 393) | GI50 (SF-295) | GI50 (SK-MEL-2) | GI50 (SK-OV-3) | GI50 (SW-620) | GI50 (TK-10)
CCC(/C=C/C1OC(=O)C=CC1C)=C\C(C)C/C=C/C(C)=C/C(C)C(=O)C(C)C(O)C(C)C/C(C)=C/C(=O)O (configuration not stated) | < 1e-06 µM (active) | 2.22e-06 µM (active) | 0.807 µM (active) | 3.69 µM (inactive) | 1.92e-05 µM (active) | 1.17 µM (inactive) | 0.855 µM (active) | 4.98e-06 µM (active) | 1.03 µM (active) | 3.4e-06 µM (active) | 2.13e-06 µM (active) | 1.04 µM (active) | 1.64 µM (inactive) | 1.37 µM (inactive) | 1.13 µM (inactive) | 0.757 µM (active) | 4.31 µM (inactive) | 3.11 µM (inactive) | 1.11 µM (active) | 9.4e-05 µM (active)
O=c1[nH]c(=O)c2c([nH]1)[nH]c1ccccc12 | > 100 µM (inactive) | > 100 µM (inactive) | > 100 µM (inactive) | > 100 µM (inactive) | > 100 µM (inactive) | > 100 µM (inactive) | > 10 µM (inactive) | > 100 µM (inactive) | > 100 µM (inactive) | > 100 µM (inactive) | > 100 µM (inactive) | > 100 µM (inactive) | 29.3 µM (inactive) | > 100 µM (inactive) | > 100 µM (inactive) | > 100 µM (inactive) | > 100 µM (inactive) | > 100 µM (inactive) | > 100 µM (inactive) | > 100 µM (inactive)
O=c1cc(N2CCCC2)[nH]c(=O)n1-c1ccc(F)cc1 | > 100 µM (inactive) | > 100 µM (inactive) | > 100 µM (inactive) | > 100 µM (inactive) | > 100 µM (inactive) | > 100 µM (inactive) | > 100 µM (inactive) | > 100 µM (inactive) | > 100 µM (inactive) | > 100 µM (inactive) | > 100 µM (inactive) | > 100 µM (inactive) | > 100 µM (inactive) | > 100 µM (inactive) | > 100 µM (inactive) | > 100 µM (inactive) | > 100 µM (inactive) | > 100 µM (inactive) | > 100 µM (inactive) | > 100 µM (inactive)
COc1cc(/C=C/C2=NN(c3cccc(S(=O)(=O)O)c3)C3(C2)C(Cl)C(=O)N3c2nc3ccccc3s2)ccc1O (configuration not stated) | 17.4 µM (inactive) | 14.7 µM (inactive) | 17 µM (inactive) | 18.5 µM (inactive) | 20.3 µM (inactive) | 19.5 µM (inactive) | 21.4 µM (inactive) | 13.2 µM (inactive) | 33.1 µM (inactive) | 20.8 µM (inactive) | 25.2 µM (inactive) | 13 µM (inactive) | 16.1 µM (inactive) | 16.1 µM (inactive) | 29.2 µM (inactive) | – | 39.7 µM (inactive) | – | 21.1 µM (inactive) | 14.8 µM (inactive)
C=CCSC1=N/C(=C\c2ccco2)C(=O)N1CC=C | > 100 µM (inactive) | 46.1 µM (inactive) | 70.6 µM (inactive) | 83.6 µM (inactive) | 40.3 µM (inactive) | 52.1 µM (inactive) | 26.8 µM (inactive) | 55.2 µM (inactive) | 16.6 µM (inactive) | 98.9 µM (inactive) | 41.8 µM (inactive) | 66.5 µM (inactive) | 38 µM (inactive) | 28.2 µM (inactive) | 22.5 µM (inactive) | 71.1 µM (inactive) | > 100 µM (inactive) | > 100 µM (inactive) | > 100 µM (inactive) | > 100 µM (inactive)
CN(CCCN(C)CCc1ccc(Cl)c(Cl)c1)CCCN1CCCC1 | 1.26 µM (inactive) | 6.03 µM (inactive) | 2.37 µM (inactive) | 2.28 µM (inactive) | 3.35 µM (inactive) | 1.73 µM (inactive) | 1.62 µM (inactive) | 2.13 µM (inactive) | 1.78 µM (inactive) | 1.33 µM (inactive) | 1.31 µM (inactive) | 3.31 µM (inactive) | 7.28 µM (inactive) | 0.228 µM (active) | 1.61 µM (inactive) | 2.28 µM (inactive) | 1.83 µM (inactive) | 10.2 µM (inactive) | 2.26 µM (inactive) | 2.05 µM (inactive)
CC[C@H](C)[C@H](NC(=O)N(CCC#N)CCN(CCN(C(=O)N[C@@H](Cc1ccccc1)C(=O)OC)c1ccccc1)C(=O)N[C@H](C(=O)OC)C(C)C)C(=O)OC | 4.68 µM (inactive) | 22.9 µM (inactive) | 19.8 µM (inactive) | 24.2 µM (inactive) | 29.7 µM (inactive) | 19.2 µM (inactive) | 0.879 µM (active) | 6.24 µM (inactive) | 27.5 µM (inactive) | 18 µM (inactive) | 16.5 µM (inactive) | 19.9 µM (inactive) | 22.4 µM (inactive) | 10.7 µM (inactive) | 14.2 µM (inactive) | 18.1 µM (inactive) | 20 µM (inactive) | 20.9 µM (inactive) | 21.4 µM (inactive) | 18.3 µM (inactive)
O=C(CC(=O)c1ccncc1)c1ccccc1 | 66.4 µM (inactive) | > 100 µM (inactive) | > 100 µM (inactive) | > 100 µM (inactive) | > 64.3 µM (inactive) | 75.2 µM (inactive) | 1.01 µM (active) | > 87.1 µM (inactive) | > 77.6 µM (inactive) | > 100 µM (inactive) | > 71.1 µM (inactive) | 80.7 µM (inactive) | > 100 µM (inactive) | 52.5 µM (inactive) | 81.3 µM (inactive) | > 83.8 µM (inactive) | > 81.1 µM (inactive) | > 100 µM (inactive) | 73.1 µM (inactive) | > 94.8 µM (inactive)
NS(=O)(=O)c1ccc(NC(=S)N/C=C2\C(=O)Oc3ccccc3C2=O)cc1 | 40 µM (inactive) | 34.7 µM (inactive) | 19.3 µM (inactive) | 40.5 µM (inactive) | 34.1 µM (inactive) | 33.5 µM (inactive) | 21.4 µM (inactive) | 15.3 µM (inactive) | 99.5 µM (inactive) | 16 µM (inactive) | 34.4 µM (inactive) | 38.5 µM (inactive) | 43 µM (inactive) | 30.4 µM (inactive) | 12.2 µM (inactive) | 32 µM (inactive) | 15.3 µM (inactive) | 26.4 µM (inactive) | 40.1 µM (inactive) | 28.2 µM (inactive)
CCCCCCCCCCCCCCCCOC[C@@H](COC(c1ccccc1)(c1ccccc1)c1ccccc1)O[PH](=S)OC (some centres not stated) | 6.49 µM (inactive) | 3.35 µM (inactive) | 11.6 µM (inactive) | 17.9 µM (inactive) | 13.6 µM (inactive) | 3.86 µM (inactive) | 14.8 µM (inactive) | 12.4 µM (inactive) | 7.43 µM (inactive) | 2.28 µM (inactive) | 2.24 µM (inactive) | 10.9 µM (inactive) | 9.35 µM (inactive) | 3.4 µM (inactive) | 7.53 µM (inactive) | 1.41 µM (inactive) | 11.1 µM (inactive) | 5.68 µM (inactive) | 16.1 µM (inactive) | 11.5 µM (inactive)
O=C1NC(=O)C(COCc2ccccc2)C2=C1SCCC2 (configuration not stated) | > 100 µM (inactive) | > 100 µM (inactive) | > 100 µM (inactive) | > 100 µM (inactive) | > 100 µM (inactive) | > 100 µM (inactive) | > 100 µM (inactive) | > 100 µM (inactive) | > 100 µM (inactive) | > 100 µM (inactive) | > 100 µM (inactive) | > 100 µM (inactive) | > 100 µM (inactive) | > 100 µM (inactive) | > 100 µM (inactive) | > 100 µM (inactive) | > 100 µM (inactive) | – | > 100 µM (inactive) | –
CCOC(=O)c1sc2nc(SC)nc3c2c1NCN3c1ccc2c(c1)OCCCO2 | 6.31 µM (inactive) | 51.2 µM (inactive) | > 100 µM (inactive) | – | > 100 µM (inactive) | 5.02 µM (inactive) | > 100 µM (inactive) | 79.3 µM (inactive) | > 100 µM (inactive) | 24.3 µM (inactive) | > 100 µM (inactive) | 70.8 µM (inactive) | > 100 µM (inactive) | > 100 µM (inactive) | 11.7 µM (inactive) | 1.67 µM (inactive) | > 100 µM (inactive) | 15.7 µM (inactive) | 8.71 µM (inactive) | 53.6 µM (inactive)
Cc1cc(S(=O)(=O)Nc2nnc3c(C(F)(F)F)cc(Cl)cn23)c(S)cc1Cl | > 100 µM (inactive) | > 100 µM (inactive) | 56.6 µM (inactive) | > 100 µM (inactive) | > 100 µM (inactive) | 57.9 µM (inactive) | > 100 µM (inactive) | > 100 µM (inactive) | > 100 µM (inactive) | > 100 µM (inactive) | > 100 µM (inactive) | – | 40.3 µM (inactive) | > 100 µM (inactive) | > 100 µM (inactive) | – | 64.4 µM (inactive) | > 100 µM (inactive) | > 100 µM (inactive) | > 100 µM (inactive)
CC12OC1(C)C1C(=O)OCC1C2=O (configuration not stated) | 70 µM (inactive) | > 100 µM (inactive) | 29.2 µM (inactive) | 37.4 µM (inactive) | – | 66.4 µM (inactive) | 20.6 µM (inactive) | > 100 µM (inactive) | 61.7 µM (inactive) | > 100 µM (inactive) | > 100 µM (inactive) | > 100 µM (inactive) | > 100 µM (inactive) | > 100 µM (inactive) | 31.8 µM (inactive) | 83.8 µM (inactive) | 50.5 µM (inactive) | > 100 µM (inactive) | 45.9 µM (inactive) | > 100 µM (inactive)
